Data taken from the supplement of paper PMC10307832.

What was measured:
Assay in all cases: relative viability (nuclei count vs DMSO), 5 days (fraction); higher = more cells survive
Shikonin + Foretinib = compound: CC(C)=CC[C@@H](O)C1=CC(=O)c2c(O)ccc(O)c2C1=O [Shikonin] + COc1cc2c(Oc3ccc(NC(=O)C4(C(=O)Nc5ccc(F)cc5)CC4)cc3F)ccnc2cc1OCCCN1CCOCC1 [Foretinib] (partner 0.25 µM)
How it was run: (§1)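 After 5 days of treatment, lung cancer cells in 1536-well plates were fixed and stained in a single step (final 0.05% Triton X-100, 1% formaldehyde, 1 ug/ml Hoechst) and their nuclei counted on 4× images. Treatment had been applied by pin tool the day after seeding as one drug alone or as a fixed anchor-drug dose with five library-drug doses (not always all listed) in √10 steps. Relative viability is the nuclei count of treated wells divided by that of vehicle wells, and values are medians of duplicate plates.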

Shikonin + Pictilisib = compound: CC(C)=CC[C@@H](O)C1=CC(=O)c2c(O)ccc(O)c2C1=O [Shikonin] + CS(=O)(=O)N1CCN(Cc2cc3nc(-c4cccc5[nH]ncc45)nc(N4CCOCC4)c3s2)CC1 [Pictilisib] (partner 1 µM)
How it was run: as §1

[1] = compound: CC(C)N(CCCNC(=O)Nc1ccc(C(C)(C)C)cc1)C[C@H]1O[C@@H](n2ccc3c(N)ncnc32)[C@H](O)[C@@H]1O + Cc1cc(Nc2cc(N3CCN(C)CC3)nc(Sc3ccc(NC(=O)C4CC4)cc3)n2)n[nH]1 [Tozasertib] (partner 0.1 µM)
How it was run: as §1

[2] = compound: CC(C)N(CCCNC(=O)Nc1ccc(C(C)(C)C)cc1)C[C@H]1O[C@@H](n2ccc3c(N)ncnc32)[C@H](O)[C@@H]1O + O=C(c1cc(Cc2n[nH]c(=O)c3ccccc23)ccc1F)N1CCN(C(=O)C2CC2)CC1 [Olaparib] (partner 8 µM)
How it was run: as §1

Row | Cell Line | relative viability (Shikonin + Foretinib; first compound 0.01 µM) | relative viability (Shikonin + Foretinib; first compound 0.1 µM) | relative viability (Shikonin + Foretinib; first compound 0.3162 µM) | relative viability (Shikonin + Foretinib; first compound 1 µM) | relative viability (Shikonin + Pictilisib; first compound 0.01 µM) | relative viability (Shikonin + Pictilisib; first compound 0.1 µM) | relative viability (Shikonin + Pictilisib; first compound 0.3162 µM) | relative viability (Shikonin + Pictilisib; first compound 1 µM) | relative viability ([1]; first compound 0.08 µM) | relative viability ([1]; first compound 0.253 µM) | relative viability ([1]; first compound 0.8 µM) | relative viability ([1]; first compound 2.53 µM) | relative viability ([1]; first compound 8 µM) | relative viability ([2]; first compound 0.08 µM) | relative viability ([2]; first compound 0.253 µM) | relative viability ([2]; first compound 0.8 µM) | relative viability ([2]; first compound 2.53 µM) | relative viability ([2]; first compound 8 µM)
1 | H3255 | 0.851 | 0.876 | 0.869 | 0.856 | 0.487 | 0.477 | 0.495 | 0.427 | 0.735 | 0.473 | 0.466 | 0.457 | 0.609 | 0.552 | 0.562 | 0.555 | 0.598 | 0.517
2 | NCI-H2009 | 1.24 | 1.37 | 1.31 | 1.06 | 0.817 | 1.13 | 0.671 | 0.187 | 0.765 | 0.727 | 0.798 | 0.695 | 0.713 | 0.723 | 0.643 | 0.644 | 0.629 | 0.64
3 | NCI-H1734 | 0.762 | 0.681 | 0.869 | 0.915 | 0.495 | 0.551 | 0.441 | 0.494 | 0.265 | 0.249 | 0.277 | 0.246 | 0.258 | 0.574 | 0.608 | 0.539 | 0.662 | 0.529
4 | HOP-62 | 1.28 | 1.25 | 1.28 | 1.28 | 0.714 | 1.09 | 0.933 | 0.62 | 0.369 | 0.375 | 0.335 | 0.309 | 0.367 | 0.242 | 0.642 | 0.261 | 0.347 | 0.314
5 | LOU-NH91 | 0.955 | 0.934 | 1.04 | 0.9 | 0.509 | 0.544 | 0.52 | 0.563 | 0.635 | 0.662 | 0.314 | 0.682 | 0.607 | 0.886 | 0.86 |  | 0.984 | 0.899
6 | ChaGo-K-1 | 0.97 | 1.06 | 1.05 | 0.943 | 0.677 | 1.16 | 0.699 | 1.27 | 0.242 | 0.245 | 0.222 | 0.209 | 0.23 | 0.423 | 0.413 | 0.431 | 0.392 | 0.389
7 | NCI-H23 | 1.09 | 1.07 | 1.03 | 0.983 | 0.508 | 0.514 | 0.497 | 0.378 | 0.41 | 0.378 | 0.281 | 0.355 | 0.546 | 0.334 |  | 0.266 | 0.345 | 0.28
8 | RERF-LC-KJ | 0.904 | 0.961 | 0.903 | 0.908 | 0.549 | 0.512 | 0.557 | 0.248 | 0.505 | 0.495 | 0.546 | 0.509 | 0.474 | 0.887 | 1.04 | 0.843 | 1 | 0.963
9 | NCI-H1437 | 1.37 | 1.26 | 1.26 | 1.27 | 0.424 | 0.421 | 0.416 | 0.477 | 0.405 | 0.38 | 0.409 | 0.372 | 0.389 | 0.604 | 0.642 | 0.624 | 0.592 | 0.561
10 | NCI-H596 | 0.868 | 0.824 | 0.777 | 0.941 | 0.341 | 0.385 | 0.422 | 0.4 | 0.905 |  | 0.744 | 0.97 | 0.897 | 0.667 | 0.67 | 0.531 | 0.704 | 0.723
11 | NCI-H1666 | 0.932 | 1.02 | 1.01 | 0.961 | 0.643 | 0.358 | 0.394 | 0.299 | 0.512 | 0.563 | 0.632 | 0.563 | 0.695 | 0.704 | 0.755 | 0.828 | 0.739 | 0.698
12 | NCI-H1651 | 0.883 | 0.758 | 0.93 | 0.714 | 0.612 | 0.562 | 0.669 | 0.64 | 0.624 | 0.752 | 0.628 | 0.725 | 0.579 | 0.174 | 0.197 | 0.17 | 0.185 | 0.173
13 | NCI-H1755 | 0.932 | 1.02 | 0.967 | 0.956 | 0.468 | 0.472 | 0.406 | 0.472 | 0.637 | 0.564 | 0.464 | 0.573 | 0.54 | 0.892 | 0.902 | 0.861 | 0.828 | 0.793
14 | NCI-H838 | 1.08 | 1.16 | 1.2 | 0.999 | 0.529 | 0.601 | 0.443 | 0.452 | 0.258 | 0.264 | 0.341 | 0.275 | 0.233 | 0.75 | 0.829 | 0.794 | 0.812 | 0.728
15 | HARA | 0.936 | 1.13 | 0.865 | 0.883 | 0.226 | 0.527 | 0.477 | 0.43 | 0.097 | 0.13 | 0.109 | 0.0913 | 0.0981 | 0.844 | 0.737 | 0.764 | 0.538 | 0.494
16 | NCI-H650 | 1.01 | 0.999 | 1.08 | 1.01 | 0.946 |  | 0.965 | 0.845 | 0.689 | 0.768 | 0.691 | 0.731 | 0.696 | 0.376 | 0.468 | 0.305 | 0.32 | 0.328
17 | NCI-H2347 | 1.15 | 1.27 | 0.835 | 0.953 | 0.701 | 0.764 | 0.582 | 0.573 | 0.51 | 0.492 | 0.48 | 0.539 | 0.654 | 0.525 | 0.593 | 0.534 | 0.655 | 0.548
18 | LCLC-97TM1 | 0.949 | 1.02 | 0.912 | 0.962 | 0.172 | 0.143 | 0.266 | 0.169 | 0.21 | 0.17 | 0.258 | 0.248 | 0.21 | 0.343 | 0.318 | 0.205 | 0.319 | 0.294
